Measurements reported in patent US7223753B2, “Diazabicyclic biaryl derivatives” (Neurosearch A/S, priority 2002, dated 2007).
Where a name gives a salt, the structure may show the parent alone.

Biological target: T1, α7-subtype of nicotinic receptors (Rattus norvegicus, UniProt Q05941)
T1 construct: Cerebral cortices from male Wistar rats (150–250 g) are homogenised; from tissue; host or cells: rat cerebral cortex membrane homogenate
Experiment: In vitro inhibition of 3H-α-bungarotoxine binding in rat brain
Conditions: rat cerebral cortex homogenate; 3H-α-bungarotoxine 2 nM; 2 hours at 37° C

T1 sequence (Q05941 23-502): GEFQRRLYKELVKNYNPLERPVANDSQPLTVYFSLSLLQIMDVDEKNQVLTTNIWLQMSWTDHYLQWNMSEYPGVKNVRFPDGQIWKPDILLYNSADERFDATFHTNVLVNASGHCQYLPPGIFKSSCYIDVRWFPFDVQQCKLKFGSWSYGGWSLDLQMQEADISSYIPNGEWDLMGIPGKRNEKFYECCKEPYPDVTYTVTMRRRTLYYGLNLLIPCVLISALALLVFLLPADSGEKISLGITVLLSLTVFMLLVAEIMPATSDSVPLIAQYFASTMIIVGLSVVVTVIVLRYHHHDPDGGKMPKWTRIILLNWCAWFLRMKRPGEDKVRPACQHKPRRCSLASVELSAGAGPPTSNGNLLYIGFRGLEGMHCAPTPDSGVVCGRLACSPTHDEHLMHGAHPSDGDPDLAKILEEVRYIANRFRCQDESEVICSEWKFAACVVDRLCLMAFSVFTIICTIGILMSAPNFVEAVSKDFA

c1cc(-c2ccc(N3CCN4CCC3CC4)nn2)cs1 [Compound 1, 4-[6-Thien-3-yl-pyridazin-3-yl]-1,4-diazabicyclo[3.2.2]nonane fumaric acid salt]
IC50: 38 nM

c1ccc(-c2ccc(N3CCN4CCC3CC4)cc2)cc1 [Compound 34, 4-Biphenyl-4-yl-1,4-diazabicyclo[3.2.2]nonane fumaric acid salt]
IC50: 24 nM

c1cc(-c2ccc(N3CCN4CCC3CC4)nn2)co1 [Compound 7, 4-(6-Furan-3-yl-pyridazin-3-yl)-1,4-diazabicyclo[3.2.2]nonane fumaric acid salt]
IC50: 22 nM

c1csc(-c2ccc(N3CCN4CCC3CC4)nn2)c1 [Compound 4, 4-(6-Thien-2-yl-pyridazin-3-yl)-1,4-diazabicyclo[3.2.2]nonane fumaric acid salt]
IC50: 44 nM

c1c[se]c(-c2ccc(N3CCN4CCC3CC4)nn2)c1 [Compound 5, 4-(6-Selenophen-2-yl-pyridazin-3-yl)-1,4-diazabicyclo[3.2.2]nonane fumaric acid salt]
IC50: 6.5 nM
